Test results from US6355690B1, “Remedy for CAG repeat expansion diseases” (Niigata University, priority 1998, dated 2002).

Experiments:
Assay type in all cases: cell-based
[1] = test system: COS7 cells transfected with pEGFP-Q82-19; assay: Aggregate body formation in COS7 cells expressing truncated DRPLA protein with expanded polyglutamine stretch (GFP fusion)
Experimental: (§1) The COS7 cells were transfected with plasmid thus constructed. COS7 cells were seeded in Dulbecco's modified Eagle's medium (DMEM) containing 10% fetal calf serum the day before transfection at 3×10^4 per well of an 8-well chamber slide (Nunc Inc., Naperville, Ill.). The COS7 cells were transfected with 0.5 μg of plasmid DNA using the SuperFect transfection reagent (Qiagen, Hilden, Germany) according to the manufacturer's instructions.
(§2) To investigate whether the transglutaminase reaction is involved in the formation of aggregate bodies and the induction of apoptotic cell death, the inventors cultured COS7 cells in the presence of transglutaminase inhibitors (cystamine^28, monodansyl cadaverine (MDC)^29, and putrescine^30), after transfection. For tilis purpose, truncated DRPLA proteins were expressed as fusion proteins with green fluorescence protein (GFP), which allowed the highly sensitive observation of viable cells. The inserts of pEF-BOS-FQ82-19 and pEF-BOS-FQ19-19 were transferred into pEGFP containing the coding region for GFP. The resultant plasmid DNAs (pEGFP-FQ82-19 and pEGFP-FQ19-19) were transfected into COS7 cells. The plasmid DNA was constructed as below. The segment coding for 3 histidines, the polyglutamine stretch and 19 amino acids downstream of the polyglutamine stretch of DRPLA cDNA (pDRPLAE or pDRPLAN) was amplified by PCR using a primer (5′-GGGAATTCGGATGCACCAT-[…]-3′) containing an EcoRI linker sequence and a primer (5′-[…]-3′). PCR products were digested with EcoRI and BamHI, and subcloned into the pEGFP-N1 expression vector (Clontech, Palo Alto, Calif.). The nucleotide sequences of all the constructs were confirmed using automated DNA sequencers (PE Applied Biosystems, Foster City, Calif.).
The effects of other transglutaminase inhibitor (MDC) on the aggregate formation and apoptotic cell death were also investigated. The TUNEL assay was performed using an In Situ Cell Death Detection Kit (Boehringer Mannheim, Mannheim, Germany) according to the manufacturer's instructions. FITC-conjugated dUTP was used for the terminal deoxynucleotidyl transferase reaction. An assay for nuclear fragmentation was performed by staining cells with […] Hoechst 33342. Quantitation was performed by analyzing 100 cells expressing the FLAG epitope. Statistical analyses were performed using Student's t test.

[2] = test system: COS7 cells transfected with pEGFP-Q82-19; assay: Nuclear fragmentation (apoptotic cell death), Hoechst 33342 staining
Experimental: as §1, §2
The effects of other transglutaminase inhibitor (MDC) on the aggregate formation and apoptotic cell death were also investigated. The TUNEL assay was performed using an In Situ Cell Death Detection Kit (Boehringer Mannheim, Mannheim, Germany) according to the manufacturer's instructions. […] Quantitation was performed by analyzing 100 cells expressing the FLAG epitope. […]

[3] = test system: COS7 cells transfected with pEGFP-Q19-19; assay: Expression pattern of GFP fusion protein with polyglutamine stretch of normal length; settings: 1 mM cystamine
Experimental: as §1
To investigate whether the transglutaminase reaction is involved in the formation of aggregate bodies and the induction of apoptotic cell death, the inventors cultured COS7 cells in the presence of transglutaminase inhibitors (cystamine^28, monodansyl cadaverine (MDC)^29, and putrescine^30), after transfection. For tilis purpose, truncated DRPLA proteins were expressed as fusion proteins with green fluorescence protein (GFP), which allowed the highly sensitive observation of viable cells. The inserts of pEF-BOS-FQ82-19 and pEF-BOS-FQ19-19 were transferred into pEGFP containing the coding region for GFP. The resultant plasmid DNAs (pEGFP-FQ82-19 and pEGFP-FQ19-19) were transfected into COS7 cells. The plasmid DNA was constructed as below. […]

[4] = even at 100 µM of cystamine, various concentrations

| Structure (SMILES) | sizes of the aggregate bodies (in words) ([1]; presence of MDC compared to absence of MDC) | frequencies of the cells with aggregate formation (in words) ([1]; various concentrations of MDC) | suppression of nuclear fragmentation (in words) ([2]; various concentrations of MDC) | expression patterns of the fusion protein (in words) [3] | frequency of cells retaining a diffuse cytoplasmic expression pattern without aggregate formation ([1]; 1 mM cystamine, 60 hours after transfection, 32% in absence of cystamine, P<0.01) [%] | cells with formation of aggregate bodies ([1]; 1 mM cystamine, cultured for 60 hours, 42% without cystamine, P<0.01) [%] | suppression of aggregate bodies (in words) [1, 4] | nuclear fragmentation ([2]; 1 mM cystamine, 60 hours, 38% without cystamine, P<0.05) [%] | suppression of nuclear fragmentation (in words) [2, 4] |
| --- | --- | --- | --- | --- | --- | --- | --- | --- | --- |
| CN(C)c1cccc2c(S(=O)(=O)NCCCCCN)cccc12 [MDC, monodansyl cadaverine] | smaller | no significant changes | Strong suppression |  |  |  |  |  |  |
| NCCSSCCN [cystamine] |  |  |  | did not change | 56 | 33 | suppression effects appeared in a dose-dependent manner | 24 | suppression effects appeared in a dose-dependent manner |
